These are literature values, as cited in US20210069174A1, “COMPOSITIONS AND METHODS FOR TREATMENT OF CYSTIC FIBROSIS” (Vertex Pharmaceuticals Incorporated, priority 2017, published 2021).

The series relates to CFTR. Conditions: CFTR modulator; disclosed in PCT Publication No. WO 2016/057572.

Take `CC(C)COc1cc(F)cc(-c2ccc(C(=O)NS(=O)(=O)c3ccccc3)c(N3C[C@@H](C)CC3(C)C)n2)c1` [Compound I, N-(benzenesulfonyl)-6-(3-fluoro-5-isobutoxy-phenyl)-2-[(4S)-2,2,4-trimethylpyrrolidin-1-yl]pyridine-3-carboxamide]: the EC30 was < 3000 nM.

What is called EC30 is the concentration needed for an effect of 30%.
